Legend:
Test in all cases: cells
Parameters in all cases: species or system panel of human cancer cell lines; Eurofins OncoPanel proliferation; nuclei count by high-content fluorescence imaging, 10-point dose response
22Rv1 = settings: Homo sapiens, 22Rv1, 72 h, cell count, 3 days
Summary of the method: (§1)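 Cells in RPMI 1640/10% FBS or special medium received compound the day after seeding, with a time-zero plate; 3-day incubation at 37°C, 5% CO2. Nuclei imaged by fluorescence microscopy; 10 half-log doses from 100 μM, 0.1% DMSO. EC50, IC50, GI50 and activity area (0–10) from curve fits.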

A204 = settings: Homo sapiens, A204, 72 h, cell count, 3 days
Summary of the method: as §1

A375 = settings: Homo sapiens, A-375, 72 h, cell count, 3 days
Summary of the method: as §1

BC-1 = settings: Homo sapiens, BC1, 72 h, cell count, 3 days
Summary of the method: as §1

BCP-1 = settings: BCP-1, 72 h, cell count, 3 days
Summary of the method: as §1

HEL-92-1-7 = settings: Homo sapiens, HEL 92.1.7, 72 h, cell count, 3 days
Summary of the method: as §1

HT-1080 = settings: Homo sapiens, HT-1080, 72 h, cell count, 3 days
Summary of the method: as §1

Hs 821.T = settings: 72 h, cell count, 3 days
Summary of the method: as §1

MC116 = settings: Homo sapiens, MC116, 72 h, cell count, 3 days
Summary of the method: as §1

MCF7 = settings: Homo sapiens, MCF7, 72 h, cell count, 3 days
Summary of the method: as §1

ST486 = settings: Homo sapiens, ST486, 72 h, cell count, 3 days
Summary of the method: as §1

SUP-T1 = settings: Homo sapiens, SUP-T1, 72 h, cell count, 3 days
Summary of the method: as §1

SW1353 = settings: Homo sapiens, SW1353, 72 h, cell count, 3 days
Summary of the method: as §1

Thp1 = settings: Homo sapiens, THP-1, 72 h, cell count, 3 days
Summary of the method: as §1

[1] = 50% of maximum possible response

For `C[C@@H]1CC(=O)NN=C1c1ccc(NN=C(C#N)C#N)cc1` [levosimendan], the IC50 (22Rv1; [1]) was 55.6 µM, the GI50 (22Rv1; corrected for time zero) was 45.8 µM and the EC50 (22Rv1; curve inflection point) was 55.6 µM. For the same compound, the IC50 (A204; [1]) was 9.19 µM, the GI50 (A204; corrected for time zero) was 7.57 µM and the EC50 (A204; curve inflection point) was 7.85 µM. It also gave an IC50 (A375; [1]) of 9.47 µM, a GI50 (A375; corrected for time zero) of 9 µM and an EC50 (A375; curve inflection point) of 9.47 µM. The IC50 (BC-1; [1]) was 18.9 µM, the GI50 (BC-1; corrected for time zero) was 14.6 µM and the EC50 (BC-1; curve inflection point) was 18.9 µM. It also gave an IC50 (BCP-1; [1]) of 12.6 µM, a GI50 (BCP-1; corrected for time zero) of 8.13 µM and an EC50 (BCP-1; curve inflection point) of 12.6 µM. For the same compound, the IC50 (HEL-92-1-7; [1]) was 21.8 µM, the GI50 (HEL-92-1-7; corrected for time zero) was 17.9 µM and the EC50 (HEL-92-1-7; curve inflection point) was 21.8 µM. The IC50 (HT-1080; [1]) was 11.7 µM, the GI50 (HT-1080; corrected for time zero) was 10.9 µM and the EC50 (HT-1080; curve inflection point) was 11.7 µM. It also gave an IC50 (Hs 821.T; [1]) greater than 100 µM, a GI50 (Hs 821.T; corrected for time zero) greater than 100 µM and an EC50 (Hs 821.T; curve inflection point) greater than 100 µM. For the same compound, the IC50 (MC116; [1]) was 14.9 µM, the GI50 (MC116; corrected for time zero) was 13.8 µM and the EC50 (MC116; curve inflection point) was 14.7 µM. For the same compound, the IC50 (MCF7; [1]) was 32.4 µM, the GI50 (MCF7; corrected for time zero) was 19 µM and the EC50 (MCF7; curve inflection point) was 16.1 µM. The IC50 (ST486; [1]) was 8.16 µM, the GI50 (ST486; corrected for time zero) was 6.04 µM and the EC50 (ST486; curve inflection point) was 8.16 µM. The IC50 (SUP-T1; [1]) was 15.6 µM, the GI50 (SUP-T1; corrected for time zero) was 11 µM and the EC50 (SUP-T1; curve inflection point) was 15.6 µM. It also gave an IC50 (SW1353; [1]) of 72.8 µM, a GI50 (SW1353; corrected for time zero) of 60.9 µM and an EC50 (SW1353; curve inflection point) of 72.8 µM. The IC50 (Thp1; [1]) was 35.5 µM, the GI50 (Thp1; corrected for time zero) was 23.1 µM and the EC50 (Thp1; curve inflection point) was 35.5 µM.
